In one series the target is Prostacyclin receptor (Homo sapiens, UniProt P43119). The experiment in a line: Displacement of [3H]iloprost from cloned human PGI2 receptor.
A short description of series [1]: Cmax in rat at 1 mg/kg, po. Further details: dose 1 mg/kg, route oral. It counts as ADME, organism-based. The conditions noted are these: in vivo.
Series [2] can be described thus: Oral bioavailability in rat. Format: ADME, organism-based. The conditions noted are these: in vivo.
Series [3] in a line: AUC in rat at 1 mg/kg, po. Format: ADME, organism-based. Further details: dose 1 mg/kg, route oral. The conditions noted are these: plasma.

Prostacyclin receptor, sequence (P43119 whole entry): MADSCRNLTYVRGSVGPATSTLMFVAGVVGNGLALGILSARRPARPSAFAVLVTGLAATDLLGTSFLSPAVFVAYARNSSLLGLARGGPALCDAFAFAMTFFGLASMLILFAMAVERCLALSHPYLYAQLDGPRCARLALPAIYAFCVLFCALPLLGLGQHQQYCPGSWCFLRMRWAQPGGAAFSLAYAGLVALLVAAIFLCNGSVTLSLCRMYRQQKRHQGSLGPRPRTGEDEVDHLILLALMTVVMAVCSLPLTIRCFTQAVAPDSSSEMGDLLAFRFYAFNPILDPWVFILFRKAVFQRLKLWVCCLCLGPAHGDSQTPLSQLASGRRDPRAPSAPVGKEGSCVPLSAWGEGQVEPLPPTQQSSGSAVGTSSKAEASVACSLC

At Prostacyclin receptor, `O=C(O)COc1cccc(CN2CCC[C@@H]2c2nc(-c3ccccc3)c(-c3ccccc3)o2)c1` returned a Ki of 76 nM.

In turn, `Cl.O=C(O)COc1cccc(CN2CCC[C@@H]2c2nc(-c3ccccc3)c(-c3ccccc3)o2)c1` gave a maximum concentration (Cmax) in series [1] of 15.5 ng/mL. The bioavailability in series [2] amounted to 41%. The same compound gave an area under the curve (AUC) in series [3] of 81.7 ng·h/mL.

For the compound `O=C([O-])COc1cccc(C[C@@H]2CCCC=C2c2nc(-c3ccccc3)c(-c3ccccc3)o2)c1.[Na+]`, on Prostacyclin receptor, the inhibition constant (Ki) amounted to 60 nM. The compound further had a bioavailability in series [2] of 50%.

(Values after ChEMBL document CHEMBL1137263, “Replacing the cyclohexene-linker of FR181157 leading to novel IP receptor agonists: orally active prostacyclin mimetics. Part 6” (Bioorg Med Chem Lett, 2006).)
